{"source": "patent US20210380586A1", "about": "“2-INDOLYL IMIDAZO[4,5-D]PHENANTHROLINE POLYMORPHS AND COMPOSITIONS REGARDING THE SAME” (Aptose Biosciences Inc., priority 2020, published 2021)", "assay_type_in_all_cases": "physicochemical", "key": {"[1]": {"assay": "USP <788> Method 1 HIAC particle count after mixing with Lactated Ringers", "details": "4 mg/mL mixed with Lactated Ringers 2:1, held in glass or Nalgene container", "description": "In USP <788> monograph, two methods were provided to determine particles or particulate matter in an injectable drug, i.e. using an analytical instrument to count particle or Method I (e.g. electronic light obscuration or HIAC method) or counting the particles using an optical microscope (Method 2). Prior to conducting the End-User Compatibility Study, a study was performed to determine the feasibility of sample collection and assessment by USP <788> Method I (HIAC analysis). For this study, Compound I-tetrahydrate (4 mg/mL) was mixed with Lactated Ringers IV Solution in a 2:1 ratio of Lactated Ringers solution to Compound I-tetrahydrate and held in a glass or Nalgene plastic container. Samples were held for 1, 5, 10, 15, 20, 25 and 30 minutes and analyzed by USP <788> Method 1 using a HIAC electronic light obscuration particle counter. […] This short time duration precluded the use of USP <788> Method 1 (HIAC) due to the large sample volumes (˜25 mL) and length of time required to collect this volume of sample, drop wise, from the infusion set."}, "[2]": {"assay": "Polymorph transition study, slurry in water-methanol, XRPD", "details": "in the presence of water", "description": "The Slurry was maintained at 20° C. or at 50° C. for one week then the resulting crystals were analyzed by XRPD to determine its polymorphic form."}, "[3]": {"assay": "Dynamic vapor sorption (DVS)", "description": "The mass uptake of 12% is equal to three equivalents of water; however, the material was not fully dry yet after drying at 0% RH for 24 hours. […] The water uptake and release is not stepwise, and no indication of other hydrates with different ratios of water is present.\nCompound I-hydrate Form 2 was also analyzed by DVS (FIG. 14). Form 2 steadily gained 1.1 wt % from 5-95% RH. It underwent complete desorption with minor hysteresis."}, "[4]": {"assay": "Exposure of solids to fixed relative humidity for 11 days, XRPD", "details": "for form after exposure to humidity: 11 days", "text": "To determine relative humidity boundaries for conversion between Form 2 and Form 3, solids of Form 2 were exposed to P2O5 conditions (˜0% RH), 11%, and 23% RH. The solids were held at the specified humidities for 11 days to see if the longer duration would result in the presence of Form 3."}, "[5]": {"assay": "Effect of drying on polymorphic form, XRPD", "description": "Crystalline Compound I-tetrahydrate Form 2 was dried under varying temperature, pressure, and time as indicted in Table 2. After the drying, the resulting crystals were analyzed by XRPD to determine its polymorphic form."}, "[6]": {"assay": "IV formulation end user compatibility study, microscopic particulate examination", "description": "For the high concentration, […] of Compound I-tetrahydrate (4.0 mg/mL) was injected into a BBraun partial additive bag (PAB) for IV administration, attached to a Y-infusion set line. The other end of the Y infusion set line was connected to Lactated Ringer's Solution. Infusion is performed via the Y infusion set, such that the drug product is mixed with Lactated Ringer's Solution directly prior to administration. A total volume of 100 mL drug product at a rate of 50 mL/hr and 200 mL Lactated Ringer's Solution at a rate of 100 mL/hr were administered in a 2:1 ratio over a two hour period, to deliver 300 mL of eluent at a rate of 150 mL/hr.\nThe evaluation of particulate matter from collected IV samples was therefore performed by microscopic visual examination utilizing approximately 25 μL of IV co-infusion eluate, collected directly from the terminal end of the IV line, deposited on a microscope slide. […] The specific microscope settings used are shown below. A Positive Control sample containing a USP Particle Count Reference Standard consisting of spherical particles of known sizes between 10 μm and 15 μm (USP reference standard, Cat. No.: 1500502, lot #L0L142) was visualized under the microscope using a 10×10 lens."}, "[7]": {"assay": "Variable relative humidity (VRH)-XRPD analysis", "description": "To investigate the behavior of Crystalline Form 2 at various humidities and evaluate conditions that favor generation of Form 2 (tetrahydrate) versus Form 3 (dihydrate), Form 2 was characterized by VRH-XRPD. The analysis was conducted by beginning at ambient RH (˜50%) and lowering to 0% RH for 4 hours. Actual RH during this time ranged from 0.7-0.3%."}, "[8]": {"details": "4.0 mg/mL, Y-infusion with Lactated Ringer's Solution 2:1, 120 min simulated infusion run"}}}
{"smiles": "Cc1[nH]c2ccc(F)cc2c1-c1nc2c3cccnc3c3ncccc3c2[nH]1", "note": "[Compound I-hydrate Form 2]", "values": [{"measurement": "time at which particulate formed at levels exceeding USP acceptance criteria", "setting": "[1]", "value": "approximately 10 minutes"}, {"measurement": "stability relative to Crystalline Form 1", "setting": "[2]", "value": "more stable"}, {"measurement": "XRPD of the post-DVS solids", "setting": "[3]; after sorption to 95% RH and desorption to 5% RH", "value": "No form change"}, {"measurement": "DVS total mass uptake", "setting": "[3]; continuous isothermal adsorption of water after drying at 0% RH for 24 hours (FIGS. 7 and 8)", "value": 12, "unit": "%"}, {"measurement": "DVS weight gain", "setting": "[3]; from 5-95% RH", "value": 1.1, "unit": "wt %"}, {"measurement": "stability in DVS de-sorption cycle", "setting": "[3]; stable signal down to 10% RH", "value": "very stable"}, {"measurement": "form after exposure to humidity", "setting": "[4]; 11% RH", "value": "no form change"}, {"measurement": "form after exposure to humidity", "setting": "[4]; 23% RH", "value": "no form change"}, {"measurement": "form after exposure to humidity", "setting": "[4]; P2O5 conditions (~0% RH)", "value": "converts to Form 3"}, {"measurement": "relative humidity at and above which physically stable", "setting": "[4]; exposed for over a week", "value": "≥ 11", "unit": "% RH"}, {"measurement": "stability under various drying conditions", "setting": "[5]; 15-35 ° C., 600-0 mbar, up to 3 days", "value": "stable"}, {"measurement": "Polymorphic form by XRPD after drying", "setting": "[5]; 15 ° C., 0 mbar, drying time 1 h", "value": "Form 2"}, {"measurement": "Polymorphic form by XRPD after drying", "setting": "[5]; 15 ° C., 0 mbar, drying time 4 h", "value": "Form 1"}, {"measurement": "Polymorphic form by XRPD after drying", "setting": "[5]; 15 ° C., 0 mbar, drying time 24 h", "value": "Form 1"}, {"measurement": "Polymorphic form by XRPD after drying", "setting": "[5]; 15 ° C., 0 mbar, drying time 3 days", "value": "Form 1"}, {"measurement": "Polymorphic form by XRPD after drying", "setting": "[5]; 15 ° C., 400 mbar, drying time 1 h", "value": "Form 2"}, {"measurement": "Polymorphic form by XRPD after drying", "setting": "[5]; 15 ° C., 400 mbar, drying time 4 h", "value": "Form 2"}, {"measurement": "Polymorphic form by XRPD after drying", "setting": "[5]; 15 ° C., 400 mbar, drying time 24 h", "value": "Form 2"}, {"measurement": "Polymorphic form by XRPD after drying", "setting": "[5]; 15 ° C., 400 mbar, drying time 3 days", "value": "Form 2"}, {"measurement": "Polymorphic form by XRPD after drying", "setting": "[5]; 15 ° C., 600 mbar, drying time 1 h", "value": "Form 2"}, {"measurement": "Polymorphic form by XRPD after drying", "setting": "[5]; 15 ° C., 600 mbar, drying time 4 h", "value": "Form 2"}, {"measurement": "Polymorphic form by XRPD after drying", "setting": "[5]; 15 ° C., 600 mbar, drying time 24 h", "value": "Form 2"}, {"measurement": "Polymorphic form by XRPD after drying", "setting": "[5]; 15 ° C., 600 mbar, drying time 3 days", "value": "Form 2"}, {"measurement": "Polymorphic form by XRPD after drying", "setting": "[5]; 25 ° C., 0 mbar, drying time 1 h", "value": "Form 2"}, {"measurement": "Polymorphic form by XRPD after drying", "setting": "[5]; 25 ° C., 0 mbar, drying time 4 h", "value": "Form 1"}, {"measurement": "Polymorphic form by XRPD after drying", "setting": "[5]; 25 ° C., 0 mbar, drying time 24 h", "value": "Form 1"}, {"measurement": "Polymorphic form by XRPD after drying", "setting": "[5]; 25 ° C., 400 mbar, drying time 1 h", "value": "Form 2"}, {"measurement": "Polymorphic form by XRPD after drying", "setting": "[5]; 25 ° C., 400 mbar, drying time 4 h", "value": "Form 2"}, {"measurement": "Polymorphic form by XRPD after drying", "setting": "[5]; 25 ° C., 400 mbar, drying time 24 h", "value": "Form 2"}, {"measurement": "Polymorphic form by XRPD after drying", "setting": "[5]; 25 ° C., 400 mbar, drying time 3 days", "value": "Form 2"}, {"measurement": "Polymorphic form by XRPD after drying", "setting": "[5]; 25 ° C., 600 mbar, drying time 1 h", "value": "Form 2"}, {"measurement": "Polymorphic form by XRPD after drying", "setting": "[5]; 25 ° C., 600 mbar, drying time 4 h", "value": "Form 2"}, {"measurement": "Polymorphic form by XRPD after drying", "setting": "[5]; 25 ° C., 600 mbar, drying time 24 h", "value": "Form 2"}, {"measurement": "Polymorphic form by XRPD after drying", "setting": "[5]; 25 ° C., 600 mbar, drying time 3 days", "value": "Form 2"}, {"measurement": "Polymorphic form by XRPD after drying", "setting": "[5]; 35 ° C., 0 mbar, drying time 1 h", "value": "Form 1 and Form 2"}, {"measurement": "Polymorphic form by XRPD after drying", "setting": "[5]; 35 ° C., 0 mbar, drying time 4 h", "value": "Form 1"}, {"measurement": "Polymorphic form by XRPD after drying", "setting": "[5]; 35 ° C., 0 mbar, drying time 24 h", "value": "Form 1"}, {"measurement": "Polymorphic form by XRPD after drying", "setting": "[5]; 35 ° C., 400 mbar, drying time 1 h", "value": "Form 2"}, {"measurement": "Polymorphic form by XRPD after drying", "setting": "[5]; 35 ° C., 400 mbar, drying time 4 h", "value": "Form 2"}, {"measurement": "Polymorphic form by XRPD after drying", "setting": "[5]; 35 ° C., 400 mbar, drying time 24 h", "value": "Form 2"}, {"measurement": "Polymorphic form by XRPD after drying", "setting": "[5]; 35 ° C., 600 mbar, drying time 1 h", "value": "Form 2"}, {"measurement": "Polymorphic form by XRPD after drying", "setting": "[5]; 35 ° C., 600 mbar, drying time 4 h", "value": "Form 2"}, {"measurement": "Polymorphic form by XRPD after drying", "setting": "[5]; 35 ° C., 600 mbar, drying time 24 h", "value": "Form 2"}, {"measurement": "form change under full vacuum", "setting": "[5]; full vacuum (0 mbar) for four hours, all temperature tested", "value": "complete conversion to Form 1"}, {"measurement": "filter clogging or stoppage of the infusion pump", "setting": "[6]; [8]", "value": "No filter clogging"}, {"measurement": "particles by microscope examination in eluent samples", "setting": "[6]; [8]", "value": "no particles were detected"}, {"measurement": "time material may be infused without filter clogging", "setting": "[6]; \"Y-Line\" infusion set", "value": "up to 2 hours"}, {"measurement": "VRH-XRPD Results", "setting": "[7]; Held at ~0.3-0.7% RH, 4 hours", "value": "Form 2 + Form 3; amount of Form 3"}, {"measurement": "VRH-XRPD Results", "setting": "[7]; Initial scan at ambient RH (46.3%)", "value": "Consistent with Form 2"}, {"measurement": "VRH-XRPD Results", "setting": "[7]; finally held at ambient RH (~40% to ~37%)", "value": "Form 2 + trace amount of Form 3"}, {"measurement": "VRH-XRPD Results", "setting": "[7]; then held at ~50% RH, 1 hour (cycling back)", "value": "Form 2, possibly contains trace"}, {"measurement": "VRH-XRPD Results", "setting": "[7]; then held at ~50% RH, 1 hour (increasing RH)", "value": "Form 2 + Form 3"}, {"measurement": "VRH-XRPD Results", "setting": "[7]; then held at ~80% RH, 1 hour (cycling back)", "value": "Form 2, possibly contains trace"}, {"measurement": "VRH-XRPD Results", "setting": "[7]; then held at ~82-79% RH, 1 hour", "value": "Form 2 + trace amount of Form 3"}, {"measurement": "VRH-XRPD Results", "setting": "[7]; then held at ~85-87% RH, 2 hours", "value": "Form 2, possibly contains trace"}]}
